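48-hour exposure; five concentrations; linearly interpolated endpoints. GI50 = concentration required for 50% inhibition of growth.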 The source made the active and inactive calls. No stated cut-off is given here; in the data, active = GI50 up to about 1.1 µM and inactive = higher.
Experiments:
Assay in all cases: DTP human tumour cell line panel, 48 h
CCRF-CEM = test system: CCRF-CEM
TK-10 = test system: TK-10
K562 = test system: K562
HCC 2998 = test system: HCC 2998
SNB-75 = test system: SNB-75
NCI-H226 = test system: NCI-H226
SW-620 = test system: SW-620
LXFL 529 = test system: LXFL 529
SK-MEL-5 = test system: SK-MEL-5
EKVX = test system: EKVX
RPMI-8226 = test system: RPMI-8226
NCI-H23 = test system: NCI-H23
UO-31 = test system: UO-31
OVCAR-4 = test system: OVCAR-4
ACHN = test system: ACHN
SK-MEL-28 = test system: SK-MEL-28
DMS-114 = test system: DMS-114
DU-145 = test system: DU-145
MCF7 = test system: MCF7
PC-3 = test system: PC-3

| Compound | GI50 (CCRF-CEM) | GI50 (TK-10) | GI50 (K562) | GI50 (HCC 2998) | GI50 (SNB-75) | GI50 (NCI-H226) | GI50 (SW-620) | GI50 (LXFL 529) | GI50 (SK-MEL-5) | GI50 (EKVX) | GI50 (RPMI-8226) | GI50 (NCI-H23) | GI50 (UO-31) | GI50 (OVCAR-4) | GI50 (ACHN) | GI50 (SK-MEL-28) | GI50 (DMS-114) | GI50 (DU-145) | GI50 (MCF7) | GI50 (PC-3) |
| --- | --- | --- | --- | --- | --- | --- | --- | --- | --- | --- | --- | --- | --- | --- | --- | --- | --- | --- | --- | --- |
| CCC(C)(O)c1cn(-c2ccc(Cl)cc2)nn1 (stereo not given) | > 100 µM (inactive) | > 100 µM (inactive) | > 100 µM (inactive) | > 100 µM (inactive) | > 100 µM (inactive) | > 100 µM (inactive) | > 100 µM (inactive) | > 100 µM (inactive) | > 100 µM (inactive) | > 100 µM (inactive) | > 100 µM (inactive) | > 100 µM (inactive) | > 100 µM (inactive) | > 100 µM (inactive) | > 100 µM (inactive) | > 100 µM (inactive) |  |  |  |  |
| COCN1COCN(C)C1=O | > 100 µM (inactive) | > 100 µM (inactive) | > 100 µM (inactive) | > 100 µM (inactive) | > 100 µM (inactive) | > 100 µM (inactive) | > 100 µM (inactive) |  | > 100 µM (inactive) | > 100 µM (inactive) | > 100 µM (inactive) | > 100 µM (inactive) | > 100 µM (inactive) | > 100 µM (inactive) | > 100 µM (inactive) | > 100 µM (inactive) | > 100 µM (inactive) |  |  |  |
| COCC1C(=O)c2cc3c(cc2C12C=CC1(C=C2)OCCO1)OCO3 (stereo not given) | 0.583 µM (active) | 20.6 µM (inactive) | 2 µM (inactive) |  | 14.9 µM (inactive) | 10.9 µM (inactive) | 2.48 µM (inactive) | 2.49 µM (inactive) | > 10 µM (inactive) | 16.6 µM (inactive) | 1.43 µM (inactive) | 12.5 µM (inactive) |  | 14.2 µM (inactive) | 12.7 µM (inactive) | 14.5 µM (inactive) | 2.99 µM (inactive) |  |  |  |
| Cc1cc(Br)cc(C)c1NC(=O)C(=O)C(C(=O)c1ccncc1)C1OC(=O)c2ccccc21 (stereo not given) | > 100 µM (inactive) | > 100 µM (inactive) | > 100 µM (inactive) | > 100 µM (inactive) |  | > 100 µM (inactive) | > 100 µM (inactive) | > 100 µM (inactive) |  | > 100 µM (inactive) | > 100 µM (inactive) | > 100 µM (inactive) | > 100 µM (inactive) | > 100 µM (inactive) | > 100 µM (inactive) |  | > 100 µM (inactive) |  |  |  |
| CCCCCCCCCC(=O)NC(Cc1ccc(O)cc1)C(=O)NCCCNCCCCNCCCNC(=O)[C@@H](N)CCCN=C(N)N (stereo not given in full) | 84.9 µM (inactive) | 46.9 µM (inactive) | 29.9 µM (inactive) | 27.7 µM (inactive) |  | 61.2 µM (inactive) | > 100 µM (inactive) | 77.3 µM (inactive) | 12.8 µM (inactive) | 30.1 µM (inactive) | 64.9 µM (inactive) | 57.7 µM (inactive) | 31.9 µM (inactive) |  | 18.9 µM (inactive) | 19.2 µM (inactive) | 61.8 µM (inactive) |  |  |  |
| COC(=O)c1cc(=O)nc2cc3cccccc3n12 | > 100 µM (inactive) | > 100 µM (inactive) | > 100 µM (inactive) | > 100 µM (inactive) | > 100 µM (inactive) | > 100 µM (inactive) | > 100 µM (inactive) | > 100 µM (inactive) | > 100 µM (inactive) | > 100 µM (inactive) | > 100 µM (inactive) | > 100 µM (inactive) | > 100 µM (inactive) |  | > 100 µM (inactive) | > 100 µM (inactive) |  |  |  |  |
| O=C1CC(c2c[nH]c3ccccc23)C(=O)N1 (stereo not given) | > 100 µM (inactive) | > 100 µM (inactive) | > 100 µM (inactive) | > 100 µM (inactive) | > 100 µM (inactive) | > 100 µM (inactive) | > 100 µM (inactive) | > 100 µM (inactive) | > 100 µM (inactive) | > 100 µM (inactive) | > 100 µM (inactive) | > 100 µM (inactive) | > 100 µM (inactive) | > 100 µM (inactive) | > 100 µM (inactive) | > 100 µM (inactive) |  |  |  |  |
| CSc1c([S+](C)[O-])[nH]c2cc(Br)cc(Br)c12 (stereo not given) | 22.2 µM (inactive) | 27.8 µM (inactive) | 24.2 µM (inactive) | 18.3 µM (inactive) | 17.3 µM (inactive) | 27.4 µM (inactive) | 32.8 µM (inactive) | 21.1 µM (inactive) | 18.3 µM (inactive) | 14.3 µM (inactive) | 18.8 µM (inactive) | 19.3 µM (inactive) | 23.4 µM (inactive) |  | 24.5 µM (inactive) | 20.7 µM (inactive) |  |  |  |  |
| OCc1ccc2c(c1)CC1(Cc3ccc(/C=N/O)cc3C1)C2 (stereo not given) | 1.96 µM (inactive) | 13.4 µM (inactive) | 1.8 µM (inactive) | 1.97 µM (inactive) | 2.88 µM (inactive) | 10 µM (inactive) | 1.68 µM (inactive) |  | 1.34 µM (inactive) | 6.73 µM (inactive) | 2.25 µM (inactive) | 3.19 µM (inactive) | 7.08 µM (inactive) | 1.92 µM (inactive) | 7.08 µM (inactive) | 6.82 µM (inactive) |  | 5.24 µM (inactive) | 2 µM (inactive) | 3.74 µM (inactive) |

Source: ChEMBL document CHEMBL1201862, “PubChem BioAssay data set” (2004)
